Results on 16 compounds are retold here after patent US9670213B2, “Pteridine ketone derivative and applications thereof as EGFR, BLK, and FLT3 inhibitor” (EAST CHINA UNIVERSITY OF SCIENCE AND TECHNOLOGY, priority 2012, dated 2017).

One test concerns the target FLT3 (Homo sapiens (Human), UniProt P36888). Kind of test: FLT3 kinase activity assay (Caliper). The note with it: read-out: Inhibitory activity on kinase (IC50, nM) FLT3. The class given is biochemical. How it is done:
(§1) Preparation of 1× kinase matrix buffer and stop buffer.
(§2) Preparation of compound solution. The compound was dissolved in 100% DMSO to a concentration, which was 50 times of the final highest inhibiting-concentration. 100 μL of the compound solution as said above was transferred into wells of 96-well plate. The above compound solution was sequentially diluted to the final desired concentration. In two blank wells of same 96-well plate, 100 μL of 100% DMSO was added as no-compound and no-kinase control, and this plate was used as the original plate.
(§3) Preparation of intermediate plate. 10 μL of compound solution was transferred from the original plate to another 96-well plate as the intermediate plate; 90 μL of 1× kinase buffer was added into each well of the intermediate plate, and the intermediate plate was shaken for 10 min.
(§4) Preparation of assay plate. 5 μL of solution from each well of intermediate plate was added into a 384-well plate, and repeated controls were set.
(§5) Kinase reaction. 2.5× kinase solution and 2.5× peptide solution were prepared. 2.5× kinase solution was transferred into assay plate. Assay plate comprised 5 μL of the compound solution in 10% DMSO. 10 μL of 2.5× kinase solution was added in each well of 384-well assay plate. […] 2.5× peptide solution was added into each well. After incubated at 28° C. for an appropriate time, 25 μL of stop buffer was added to quench the reaction. Experimental data were collected in Caliper. Curve was fitted.

For a further test, the target named is EGFR-L858R/T790M (Homo sapiens (Human), UniProt P00533, L858R/T790M). Kind of test: In vitro EGFR kinase activity assay (Z'-Lyte). The conditions noted are these: read-out: Inhibitory activity on EGFR kinase (IC50, nM) T790M/L858R. It counts as biochemical.
The target of the next test is BLK (Homo sapiens (Human), UniProt P51451). Kind of test: BLK kinase activity assay (Caliper). It counts as biochemical. The note with it: read-out: Inhibitory activity on kinase (IC50, nM) BLK. How it is done: as §1, §2, §3, §4, §5
A further test deals with wild-type EGFR (Homo sapiens (Human), UniProt P00533). Kind of test: In vitro EGFR kinase activity assay (Z'-Lyte). It counts as biochemical. The conditions noted are these: EGFR WT; read-out: Inhibitory activity on EGFR kinase (IC50, nM) WT.
In test [1] the test system is HCC827 (non-small cell lung cancer cells, EGFR del E746-A750). Kind of test: Cell proliferation and growth inhibition analysis. The note with it: Homo sapiens, 72 hours, read-out: Inhibitory activity on cell proliferation (IC50, μM) HCC827. It counts as cell-based. How it is done:
(§6) Cell proliferation was evaluated by MTS assay. Cells were exposed to the process conditions for 72 hours, and the number of cells for each cell line used in the experiment was adjusted according to the absorbance value (absorbance value at 490 nm was 1.3-2.2). 6 concentration gradients (0.1 nM-10 μM) were set for the compounds to be tested, with six parallel controls for each concentration.
(§7) H1975, HCC827, A549, BT474, MCF-7, SK-BR-3 cells were cultured in the corresponding medium. Upon recovery, the cells were passaged at least two times and then used in experiments. Cells in Log phase were trypsinized and resuspended in the medium. H1975 (1000 cells per well), BT474 (1500 cells per well), MCF-7 (1500 cells per well), HCC827 (2000 cells per well), SK-BR-3 (2000 cells per well), A549 (2000 cells per well) were seeded into 96-well plates, the volume was 100 μL, and 6 rows and 7 columns were set. The plate was placed in an incubator at 37° C. of 5% carbon dioxide overnight. Compounds were dissolved in DMSO to obtain the concentration of […], and then gradually diluted to obtain the concentration of compound as […], 0.1 μM, 0.01 μM, 0.001 μM, 0.0001 μM. 2 μL of compound solution was added into 998 μL of medium, and the resulting mixture was thoroughly mixed. 100 μL of mixture was added into 96-well plate. […] After the cells were cultured for 68 hours, 20 μL of MTT (5 mg/mL) was added. After 4 hours, the supernatant was discarded and 150 μL of DMSO was added. The resulting system was shaken for 10 minutes, and the plate was read with Synergy HT (Bio TeK) (OD490). The data was calculated by GraphPad Prism version 4.0, and IC50 was obtained by non-linear regression model using dose-response curve.

Test [2] concerns H1975 (non-small cell lung cancer cells, EGFR L858R/T790M). Kind of test: Cell proliferation and growth inhibition analysis. The class given is cell-based. The conditions noted are these: Homo sapiens, NCI-H1975, 72 hours, read-out: Inhibitory activity on cell proliferation (IC50, μM) H1975. The procedure: as §6, §7
A further test concerns the target EGFR-L858R (Homo sapiens (Human), UniProt P00533, L858R). Kind of test: In vitro EGFR kinase activity assay (Z'-Lyte). It counts as biochemical. The note with it: read-out: Inhibitory activity on EGFR kinase (IC50, nM) L858R.
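Throughout, for Inhibitory activity on EGFR kinase (IC50, nM) L858R: Cell-free kinase reaction with peptide substrate and ATP, 1.5 h at room temperature, then development step cleaving non-phosphorylated peptide, 10-point dilution series 0.051–1000 nM, phosphopeptide as 100% phosphorylation control.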
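Throughout, for Inhibitory activity on EGFR kinase (IC50, nM) T790M/L858R: Cell-free kinase reaction with peptide substrate and ATP, 1.5 h at room temperature, development cleaving unphosphorylated peptide, 10-point dilution 0.051–1000 nM, phosphopeptide as 100% phosphorylation control.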
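Throughout, for Inhibitory activity on EGFR kinase (IC50, nM) WT: Ten-point dose series from 5.1×10^−11 to 1.0×10^−6 mol/L, kinase reaction 1.5 h at room temperature, then 1 h development cleaving unphosphorylated peptide, phosphopeptide as 100% phosphorylation control.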

BLK, sequence (P51451 whole entry): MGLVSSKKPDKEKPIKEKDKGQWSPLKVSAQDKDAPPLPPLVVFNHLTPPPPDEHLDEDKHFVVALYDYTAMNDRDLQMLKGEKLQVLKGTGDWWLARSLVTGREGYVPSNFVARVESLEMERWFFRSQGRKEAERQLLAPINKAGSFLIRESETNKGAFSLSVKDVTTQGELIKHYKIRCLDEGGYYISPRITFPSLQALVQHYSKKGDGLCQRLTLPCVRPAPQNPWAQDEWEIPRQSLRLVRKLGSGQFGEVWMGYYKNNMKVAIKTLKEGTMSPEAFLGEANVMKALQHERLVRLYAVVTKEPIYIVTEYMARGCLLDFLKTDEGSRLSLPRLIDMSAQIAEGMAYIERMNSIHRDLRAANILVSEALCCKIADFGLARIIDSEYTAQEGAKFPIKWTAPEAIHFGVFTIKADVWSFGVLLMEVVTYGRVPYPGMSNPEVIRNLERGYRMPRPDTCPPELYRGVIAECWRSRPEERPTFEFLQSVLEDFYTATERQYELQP
EGFR-L858R/T790M, sequence (P00533 25-1210 T790M/L858R): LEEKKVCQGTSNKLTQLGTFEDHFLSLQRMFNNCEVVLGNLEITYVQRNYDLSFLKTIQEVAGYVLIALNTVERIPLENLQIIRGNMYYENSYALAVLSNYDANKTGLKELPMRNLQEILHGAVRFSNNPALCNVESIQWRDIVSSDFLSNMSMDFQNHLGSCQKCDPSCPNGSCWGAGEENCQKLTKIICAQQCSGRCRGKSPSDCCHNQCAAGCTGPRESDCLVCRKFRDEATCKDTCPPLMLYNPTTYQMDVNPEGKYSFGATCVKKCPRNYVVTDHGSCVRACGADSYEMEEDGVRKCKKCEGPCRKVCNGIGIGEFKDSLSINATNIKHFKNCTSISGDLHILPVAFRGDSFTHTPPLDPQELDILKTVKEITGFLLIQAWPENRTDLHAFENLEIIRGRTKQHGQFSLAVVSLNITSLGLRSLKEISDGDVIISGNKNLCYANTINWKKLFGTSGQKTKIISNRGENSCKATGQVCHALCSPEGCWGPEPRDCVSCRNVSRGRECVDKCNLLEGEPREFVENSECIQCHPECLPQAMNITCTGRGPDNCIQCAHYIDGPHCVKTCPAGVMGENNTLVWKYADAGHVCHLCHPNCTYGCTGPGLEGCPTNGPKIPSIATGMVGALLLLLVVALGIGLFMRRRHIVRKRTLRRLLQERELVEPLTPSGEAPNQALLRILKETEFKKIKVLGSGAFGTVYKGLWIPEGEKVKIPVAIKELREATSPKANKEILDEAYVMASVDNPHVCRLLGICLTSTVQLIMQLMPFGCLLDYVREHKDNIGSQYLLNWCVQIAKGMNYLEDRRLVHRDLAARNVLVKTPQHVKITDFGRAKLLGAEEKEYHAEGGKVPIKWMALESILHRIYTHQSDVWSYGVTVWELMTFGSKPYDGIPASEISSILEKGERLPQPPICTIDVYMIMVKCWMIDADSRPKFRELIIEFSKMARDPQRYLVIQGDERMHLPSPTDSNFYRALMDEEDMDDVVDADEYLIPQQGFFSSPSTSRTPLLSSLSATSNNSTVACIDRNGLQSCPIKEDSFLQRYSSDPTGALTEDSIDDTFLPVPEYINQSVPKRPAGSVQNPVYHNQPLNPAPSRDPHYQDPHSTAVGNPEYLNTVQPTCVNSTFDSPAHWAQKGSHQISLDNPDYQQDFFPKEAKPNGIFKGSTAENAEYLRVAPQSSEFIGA
wild-type EGFR, sequence (P00533 25-1210): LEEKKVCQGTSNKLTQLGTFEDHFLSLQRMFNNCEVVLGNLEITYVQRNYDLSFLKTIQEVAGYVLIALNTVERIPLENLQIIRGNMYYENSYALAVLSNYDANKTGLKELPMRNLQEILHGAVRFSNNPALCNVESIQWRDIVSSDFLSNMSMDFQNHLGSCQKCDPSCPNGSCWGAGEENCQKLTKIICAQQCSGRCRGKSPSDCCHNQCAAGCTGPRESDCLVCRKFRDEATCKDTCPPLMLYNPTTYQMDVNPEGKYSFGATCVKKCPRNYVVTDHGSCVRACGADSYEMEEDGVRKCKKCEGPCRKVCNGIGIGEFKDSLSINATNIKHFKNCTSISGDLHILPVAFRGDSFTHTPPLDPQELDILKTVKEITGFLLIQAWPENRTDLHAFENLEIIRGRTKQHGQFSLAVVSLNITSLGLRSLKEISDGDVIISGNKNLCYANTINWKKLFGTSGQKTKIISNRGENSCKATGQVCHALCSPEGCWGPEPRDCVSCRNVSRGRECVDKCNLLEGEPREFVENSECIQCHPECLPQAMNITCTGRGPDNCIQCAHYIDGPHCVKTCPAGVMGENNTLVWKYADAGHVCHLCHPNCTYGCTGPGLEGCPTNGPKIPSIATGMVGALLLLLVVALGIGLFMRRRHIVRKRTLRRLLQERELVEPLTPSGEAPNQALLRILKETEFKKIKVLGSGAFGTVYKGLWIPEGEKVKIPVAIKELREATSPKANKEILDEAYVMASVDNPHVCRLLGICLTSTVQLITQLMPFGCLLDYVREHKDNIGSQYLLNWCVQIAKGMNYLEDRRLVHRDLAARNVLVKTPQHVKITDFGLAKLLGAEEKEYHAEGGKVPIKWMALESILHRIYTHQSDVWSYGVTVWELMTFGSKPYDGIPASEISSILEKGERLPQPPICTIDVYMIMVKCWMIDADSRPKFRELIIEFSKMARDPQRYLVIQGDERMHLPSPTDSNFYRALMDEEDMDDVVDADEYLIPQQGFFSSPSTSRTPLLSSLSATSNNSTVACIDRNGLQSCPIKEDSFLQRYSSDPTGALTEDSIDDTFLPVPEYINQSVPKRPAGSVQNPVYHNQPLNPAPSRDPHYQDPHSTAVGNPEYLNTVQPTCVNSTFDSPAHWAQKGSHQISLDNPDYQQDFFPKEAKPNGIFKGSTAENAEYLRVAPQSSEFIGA
EGFR-L858R, sequence (P00533 25-1210 L858R): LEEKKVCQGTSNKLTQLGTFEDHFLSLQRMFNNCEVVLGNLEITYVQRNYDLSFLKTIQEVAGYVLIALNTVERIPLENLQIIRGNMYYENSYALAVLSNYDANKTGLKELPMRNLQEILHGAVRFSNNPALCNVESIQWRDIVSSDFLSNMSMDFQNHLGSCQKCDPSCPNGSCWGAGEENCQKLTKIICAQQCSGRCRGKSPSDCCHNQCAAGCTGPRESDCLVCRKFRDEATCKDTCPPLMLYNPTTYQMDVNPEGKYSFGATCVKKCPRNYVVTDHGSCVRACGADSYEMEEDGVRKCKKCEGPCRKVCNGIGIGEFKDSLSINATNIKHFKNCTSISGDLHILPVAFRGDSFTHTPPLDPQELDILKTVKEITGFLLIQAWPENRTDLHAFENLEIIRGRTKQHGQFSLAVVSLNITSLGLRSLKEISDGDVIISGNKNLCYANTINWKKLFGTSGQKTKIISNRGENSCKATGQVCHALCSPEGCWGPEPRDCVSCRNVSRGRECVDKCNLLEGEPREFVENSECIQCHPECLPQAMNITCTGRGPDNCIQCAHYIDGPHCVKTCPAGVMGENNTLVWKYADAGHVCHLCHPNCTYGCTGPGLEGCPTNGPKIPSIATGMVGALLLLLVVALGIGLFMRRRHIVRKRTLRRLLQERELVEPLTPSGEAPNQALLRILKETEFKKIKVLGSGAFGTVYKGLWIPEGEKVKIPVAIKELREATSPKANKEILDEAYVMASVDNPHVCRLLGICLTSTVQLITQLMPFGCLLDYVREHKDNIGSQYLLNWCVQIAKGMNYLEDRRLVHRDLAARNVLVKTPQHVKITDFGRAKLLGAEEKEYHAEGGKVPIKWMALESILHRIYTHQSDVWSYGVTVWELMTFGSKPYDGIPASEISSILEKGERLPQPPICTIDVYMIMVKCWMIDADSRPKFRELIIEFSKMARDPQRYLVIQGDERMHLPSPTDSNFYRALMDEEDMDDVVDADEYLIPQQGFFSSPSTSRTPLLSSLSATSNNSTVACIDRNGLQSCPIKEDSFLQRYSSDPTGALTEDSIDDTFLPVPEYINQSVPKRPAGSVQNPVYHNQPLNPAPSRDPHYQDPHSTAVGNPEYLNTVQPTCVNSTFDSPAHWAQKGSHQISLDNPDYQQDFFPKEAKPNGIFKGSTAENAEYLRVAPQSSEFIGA
FLT3, sequence (P36888 27-993): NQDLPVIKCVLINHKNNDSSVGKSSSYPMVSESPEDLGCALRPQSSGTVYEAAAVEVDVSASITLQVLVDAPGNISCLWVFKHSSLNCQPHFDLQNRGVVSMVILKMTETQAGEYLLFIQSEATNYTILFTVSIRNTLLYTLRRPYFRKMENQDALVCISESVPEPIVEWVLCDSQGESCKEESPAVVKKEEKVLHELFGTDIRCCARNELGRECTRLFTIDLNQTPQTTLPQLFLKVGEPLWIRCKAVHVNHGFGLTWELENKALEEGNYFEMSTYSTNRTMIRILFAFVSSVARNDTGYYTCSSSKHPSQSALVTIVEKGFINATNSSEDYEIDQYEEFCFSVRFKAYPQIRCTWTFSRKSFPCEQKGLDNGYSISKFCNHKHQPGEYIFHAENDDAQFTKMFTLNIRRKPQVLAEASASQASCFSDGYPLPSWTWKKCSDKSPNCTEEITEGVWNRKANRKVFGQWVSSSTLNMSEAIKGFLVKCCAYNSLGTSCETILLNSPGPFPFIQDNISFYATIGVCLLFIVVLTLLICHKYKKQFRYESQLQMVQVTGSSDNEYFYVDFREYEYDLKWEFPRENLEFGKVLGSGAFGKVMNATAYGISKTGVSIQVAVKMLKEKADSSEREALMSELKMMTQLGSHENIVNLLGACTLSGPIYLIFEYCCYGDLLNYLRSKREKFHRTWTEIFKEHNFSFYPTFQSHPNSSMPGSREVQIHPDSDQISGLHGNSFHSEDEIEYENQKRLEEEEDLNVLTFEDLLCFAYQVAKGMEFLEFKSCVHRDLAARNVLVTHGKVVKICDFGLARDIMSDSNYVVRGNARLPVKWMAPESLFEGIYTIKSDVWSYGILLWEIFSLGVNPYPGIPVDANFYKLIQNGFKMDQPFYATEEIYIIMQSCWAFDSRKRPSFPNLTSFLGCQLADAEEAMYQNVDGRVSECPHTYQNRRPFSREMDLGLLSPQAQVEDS

For `C=CC(=O)Nc1cccc(-n2c(=O)cnc3cnc(Nc4ccc(N5CCCC5)cc4)nc32)c1` [Compound 022, N-(3-(7-oxo-2-(4-(1-pyrrolidinyl)phenylamino)-8(7H)-pteridin-yl)phenyl) acrylamide], the IC50 at FLT3 is 1080 nM; on EGFR-L858R/T790M it was 5.33 nM; on BLK it was 98 nM; at wild-type EGFR, 23.3 nM; in test [1], 0.073 µM; in test [2] it was 0.531 µM. Further, on EGFR-L858R, the IC50 is 12.6 nM.

As to `C=CC(=O)Nc1cccc(-n2c(=O)cnc3cnc(Nc4ccc(N5CCOCC5)cc4)nc32)c1` [Compound 018, N-(3-(2-(4-morpholinophenylamino)-7-oxo-8(7H)-pteridin-yl)phenyl) acrylamide], the IC50 at FLT3 is 798 nM; at EGFR-L858R/T790M, 3.02 nM; on BLK it was 41 nM; on wild-type EGFR it was 7.94 nM; in test [1], 0.017 µM; in test [2], 0.216 µM. Further, the IC50 on EGFR-L858R worked out at 5.83 nM.

With `C=CC(=O)Nc1ccc(-n2c(=O)cnc3cnc(Nc4ccc(N5CCN(C)CC5)cc4)nc32)cc1` [Compound 019, N-(4-(2-(4-(4-methyl-1-piperazinyl)-phenylamino)-7-oxo-8(7H)-pteridin-yl)phenyl) acrylamide], the IC50 came out at 51 nM on FLT3; 738 nM at EGFR-L858R/T790M; 796 nM at BLK; 1260 nM at wild-type EGFR; 0.676 µM in test [1]; 8.87 µM in test [2]. At EGFR-L858R, the IC50 stood at 6380 nM.

Regarding `CN(C)C/C=C/C(=O)Nc1cccc(-n2c(=O)cnc3cnc(Nc4ccccc4)nc32)c1` [Compound 013, 4-(dimethylamino)-N-(3-(7-oxo-2-(phenylamino)-8(7H)-pteridin-yl)phenyl)-2-buteneamide], the IC50 at FLT3 is 3780 nM; at BLK, 171 nM.

For the compound `C=CC(=O)Nc1cccc(Oc2nc(Nc3ccc(N4CCN(C)CC4)cc3OC)ncc2Cl)c1` [WZ4002, reference compound], the IC50 came to 0.014 µM in test [1] and 0.039 µM in test [2].

On to `C=CC(=O)Nc1cccc(-n2c(=O)cnc3cnc(Nc4ccc(NC(C)=O)cc4)nc32)c1` [Compound 024, N-(3-(2-(4-(acetylamino)-phenylamino)-7-oxo-8(7H)-pteridin-yl)phenyl) acrylamide], for which the IC50 at FLT3 was determined as 3550 nM; at EGFR-L858R/T790M, 5.12 nM; on BLK, 148 nM; at wild-type EGFR, 15.8 nM; in test [1], 0.229 µM; in test [2], 6.08 µM. The IC50 on EGFR-L858R is 13.4 nM.

Regarding `C=CC(=O)Nc1cccc(-n2c(=O)cnc3cnc(Nc4ccc(Cl)cc4)nc32)c1` [Compound 017, N-(3-(2-(4-chlorophenylamino)-7-oxo-8(7H)-pteridin-yl)phenyl) acrylamide], the IC50 at FLT3 worked out at 2820 nM; at EGFR-L858R/T790M, 70.3 nM; at BLK, 156 nM; on wild-type EGFR it was 67 nM; in test [1] it was 0.163 µM; in test [2], 0.82 µM. For the same compound, at EGFR-L858R, the IC50 was 84.8 nM.

Turning to `COc1ccc(-n2c(=O)cnc3cnc(Nc4ccc(N)cc4)nc32)cc1` [Compound 030, 2-(4-aminophenylamino)-8-(4-methoxyphenyl)-7(8H)-pteridin-one], the IC50 on FLT3 was 43 nM; at EGFR-L858R/T790M, 6750 nM; at BLK, above 10000 nM; at wild-type EGFR it was 3420 nM; in test [1] it was 4.65 µM; in test [2], 15.3 µM. Moreover, the IC50 on EGFR-L858R stood at 23800 nM.

In the case of `CN(C)C/C=C/C(=O)Nc1ccc(-n2c(=O)cnc3cnc(Nc4ccccc4)nc32)cc1` [Compound 012, 4-(dimethylamino)-N-(4-(7-oxo-2-(phenylamino)-8(7H)-pteridin-yl)phenyl)-2-buteneamide], the IC50 at FLT3 was determined as 160 nM; on EGFR-L858R/T790M it was 1920 nM; on BLK, 6320 nM; at wild-type EGFR it was 5980 nM; in test [1], 4.42 µM; in test [2], 18.9 µM. For the same compound, on EGFR-L858R, the IC50 worked out at 5340 nM.

In the case of `C=CC(=O)Nc1ccc(Nc2ncc3ncc(=O)n(-c4ccc(OC)cc4)c3n2)cc1` [Compound 029, N-(4-(8-(4-methoxyphenyl)-7-oxo-7,8-dihydro-pteridin-2-amino)phenyl) acrylamide], the IC50 at FLT3 was 100 nM; at EGFR-L858R/T790M it was above 10000 nM; on BLK, above 10000 nM; at wild-type EGFR, above 10000 nM; in test [1], 0.543 µM; in test [2], 0.953 µM. For the same compound, the IC50 at EGFR-L858R was determined as 1320 nM.

Consider `COc1ccc(-n2c(=O)cnc3cnc(Nc4cccc(N)c4)nc32)cc1` [Compound 028, 2-(3-aminophenylamino)-8-(4-methoxyphenyl)-7(8H)-pteridin-one], for which the IC50 on FLT3 worked out at 34 nM; on EGFR-L858R/T790M it was 3530 nM; at BLK, 7950 nM; at wild-type EGFR it was 10600 nM; in test [1], 15.9 µM; in test [2] it was 82.8 µM. Moreover, on EGFR-L858R, the IC50 worked out at 18900 nM.

Consider `C=CC(=O)Nc1cccc(-n2c(=O)c(C)nc3cnc(Nc4ccc(OC)cc4)nc32)c1` [Compound 026, N-(3-(2-(4-methoxyphenylamino)-6-methyl-7-oxo-8(7H)-pteridin-yl)phenyl) acrylamide], for which the IC50 was 568 nM on FLT3 and 96 nM at BLK.

With `C=CC(=O)Nc1cccc(-n2c(=O)cnc3cnc(Nc4ccc(C(N)=O)cc4)nc32)c1` [Compound 025, 4-(8-(3-acrylamidephenyl)-7-oxo-7,8-dihydropteridinyl-2-amino)benzamide], the IC50 on FLT3 worked out at 1790 nM; on EGFR-L858R/T790M, 4.39 nM; on BLK, 76 nM; on wild-type EGFR it was 12.7 nM; in test [1] it was 0.604 µM; in test [2], 7.3 µM. On EGFR-L858R, the IC50 is 9.64 nM.

Consider `C=CC(=O)Nc1ccc(-n2c(=O)cnc3cnc(Nc4ccc(N5CCN(C)CC5)cc4OC)nc32)cc1` [Compound 031], for which the IC50 on FLT3 was 180 nM; on EGFR-L858R/T790M it was 229 nM; at BLK, 812 nM; at wild-type EGFR, 429 nM; in test [1], 0.466 µM; in test [2], 2.88 µM. Also, at EGFR-L858R, the IC50 turned out to be 376 nM.

Take `C=CC(=O)Nc1cccc(Nc2ncc3ncc(=O)n(-c4ccc(OC)cc4)c3n2)c1` [Compound 027, N-(3-(8-(4-methoxyphenyl)-7-oxo-7,8-dihydro-pteridin-2-amino)phenyl) acrylamide]: the IC50 was determined as 119 nM at FLT3; 1200 nM on EGFR-L858R/T790M; 5660 nM at BLK; 2000 nM on wild-type EGFR; 0.408 µM in test [1]; 3.05 µM in test [2]. At EGFR-L858R, the IC50 came out at 1710 nM.

In the case of `C=CC(=O)Nc1cccc(-n2c(=O)cnc3cnc(Nc4ccccc4)nc32)c1` [Compound 015, N-(3-(7-oxo-2-(phenylamino)-8(7H)-pteridin-yl)phenyl)acrylamide], the IC50 at FLT3 was determined as 1860 nM; in test [2] it was 0.437 µM.
